The record followed here is paper PMC8162438, “Cancer cell-selective modulation of mitochondrial respiration and metabolism by potent organogold(III) dithiocarbamates” (Chemical Science, 2020).

Assay [1] has as its system MDA-MB-231. The experiment in a line: Whole-cell gold uptake by ICP-OES. The conditions noted are these: MDA-MB-231, 5 μM, 24 h. It counts as cell-based. On the procedure: We next performed cellular uptake studies to determine what percentage of the compounds were getting into the cell after treatment. Given that most therapeutic targets are localized receptors on the plasma membrane, quantifying the amount of gold compounds in cellular fractions and investigating their mode of uptake is crucial. For whole-cell uptake studies, MDA-MB-231 were treated with all 10 compounds and Auranofin at 5 μM for 24 h (Fig. 5A). Auranofin is the only gold-based therapeutic to be clinically approved, therefor we used this drug as a benchmark for comparison.[67] After treatment, the cells were washed with PBS, centrifuged, and digested with 0.5 mL of conc. […] Given that these complexes readily react with nucleophilic biological molecules and the lack of accumulation in the nuclear fraction, it is evident that the mechanism of action of this class of compounds is differentiated from the clinically available platinum agents. […]
positive control. When ready for analysis, the media were removed and the wells washed with 5 mL of PBS. […] The cells were resuspended in 2 mL of fresh media, counted, and reconstituted to a concentration of 1 x 10^5 cells/mL. […]
Compound 2a was prepared as a stock in DMSO and added to the respective wells at the specified concentrations of 0.1, 1, and 10 µM and treated for 12 h. […] The samples were cooled and stored at −20 °C until ready for use. […]

The subject of assay [2] is MDA-MB-231. The experiment in a line: Cell cycle analysis by flow cytometry (PI). Format: cell-based. Particulars: MDA-MB-231, 0.1 μM. The method, then:
The effect of 2a on cell cycle was studied by flow cytometry. We observed a time-dependent increase in G0/G1 cell cycle population over 24–72 h period. […] There are several small molecule drug candidates in clinical trials as inhibitors of CDK4/6 and induce G1 cell cycle arrest.[107–110] Thus, our finding is relevant for the design of gold based therapies for refractory tumors such as TNBC.[107–110] After 24 h, a 10% increase can be seen for G1 cell population as well as a 6% decrease in S phase in comparison to the control (Fig. 12B and C). […] The mitochondria control cellular ATP production, it is therefore possible that inhibition of mitochondria respiration and consequently low ATP levels lead to cell cycle arrest.[112–114] […]
with a final volume of 100 µL and incubated overnight at 37 °C. Compound 2a was prepared as a stock in DMSO and diluted to a working concentration of 200 µM with Seahorse XF96 assay buffer and then subsequently serial diluted by 3x to achieve multiple concentrations. The assay was performed using a pneumatic injection method of 2a, with the final injection concentrations of 0.1, 1, 3 , and 11 µM. This was followed by injection of oligomycin (1.5 µM), FCCP (0.6 µM) and rotenone/ antimycin A (0.5 µ M). […]
supplementary information of the following papers. 15-16
The Seahorse XF96 analysis for MRC5 was performed in an identical manner to MDA-MB-231 except that MRC5 cells were seeded at a density of 50,000 cells/well and an FCCP injection concentration of 0.6 µ M was used.
Cell Cycle Analysis. MDA-MB-231 cells were seeded at a density of 2 x 10^5 cells/well in a 6 well clear bottom plate with a final media volume of 2 mL and allowed to adhere overnight 37 °C. Compound 2a was prepared fresh as a stock in DMSO and added at a final concentration of 0.1 µM with a final volume of 2.5 mL. […] These solutions were stored at 4 °C until ready for analysis. […] The samples were then analyzed with FACS. […]
In general terms: In flow cytometry, cells or beads pass a laser one at a time.

Compound `C[N+](C)=C1[S][Au-2]2([S]1)[c]1ccccc1C(=O)c1cccc[n+]12.F[P-](F)(F)(F)(F)F` (centres unmarked) [1a] had an Intracellular uptake in the assay on MDA-MB-231 [1] of 3017 pmol per million cells.

`C[N+](C)=C1[S][Au-2]2([S]1)[c]1ccccc1Cc1cccc[n+]12.F[P-](F)(F)(F)(F)F` (centres unmarked) [2a]: the Intracellular uptake in the assay with MDA-MB-231 [1] is reported as 3267 pmol per million cells. Besides, in the assay on MDA-MB-231 [2] (24 h), the “Decrease in S phase versus control” value is 6% and the “Increase in G1 cell population versus control” value was found to be 10%. Also, in the assay with MDA-MB-231 [2] (72 h), the “G1 phase change over 72 h” value is given as “significant increase in G1 phase”.
